Test: Human HepG2 cell viability assay in 384 well format
Assay type: toxicity, cell-based
Design: dose 125 nL, time 70.5 hour; cytotoxicity at 70.5 h: concentration not given beside the values
Details: HepG2 cells, read-out: Inhibition

SMILES | cytotoxicity at 70.5 h
O=C(NCC1CC1)[C@H]1CC[C@@H]2[C@@H](CCN2Cc2ccoc2)O1 | -12.5%
CC(=O)N1CCC2(CC1)CC[C@@]1(C(=O)N(C)C)CN(S(C)(=O)=O)C[C@@H]21 | 27.7%
O=C([C@H]1CCCO1)N1CCc2ncnc(NC3CC3)c2CC1 | -6.76%
Cc1ccc(CN2CCC3(C2)C(=O)N(CC(C)C)c2ccccc23)s1 (centres undefined) | -7.14%
CC(=O)NCC(=O)N1C[C@H](OCc2cccnc2)[C@H]2COC[C@H]21 | 3.33%
O=C(c1ccnnc1)N1C[C@@H](OCC2CCCC2)[C@H]2OCCC[C@H]21 | -3.04%
O=C(NCc1cccc(F)c1)N1CCC2(CC(=O)N(c3ccsc3)C2)C1 (centres undefined) | 4.74%
CO[C@H]1CCN(c2ccc(C)nn2)[C@H]1Cc1cnn(C)c1 | 5.26%
Cc1nc(N(C)C)nc2c1COCC21CCN(C(=O)NC(C)C)C1 (centres undefined) | 4.31%
O=C(Cc1ccccc1)N1CCC2(CC(=O)N(c3ccsc3)C2)C1 (centres undefined) | -0.17%
CNC(=O)[C@H]1CCS(=O)(=O)[C@@H]2CN(Cc3ccc(OC)cc3)C[C@H]12 | -4.04%
COCc1cncc2c1CCN(C(=O)c1ccc(C)o1)C2 | 4.32%
N#Cc1cccc(C(=O)N2CCc3ncc(Cn4cccn4)n3CC2)c1 | 8.26%
COCC1c2c(cnn2CC2CC2)CCN1Cc1ccc(OC)cc1 (centres undefined) | 49.3%
CNC(=O)[C@H]1C[C@@H]2CN(C(=O)c3cscn3)C[C@@H]2N1S(C)(=O)=O | -1.08%
c1ccc(CN2CC[C@H]3CO[C@H](CNc4ncccn4)[C@H]3C2)nc1 | -0.901%
CCS(=O)(=O)N1CCO[C@H]2[C@H](OCC3CCCC3)CC[C@@H]21 | -13.9%
O=S(=O)(C1CC1)N1CCO[C@H]2[C@H](OCC3CCCC3)CC[C@@H]21 | 1.94%
CCS(=O)(=O)N1Cc2nccn2CC(COc2cccnc2)C1 (centres undefined) | -2.17%
COc1ncnc2c1CCN(c1cc(C(F)(F)F)ncn1)CC2 | -6.15%
CN1CC2(COCCN(C(=O)c3ccco3)C2)OCC1=O (centres undefined) | 6.17%
O=C(c1ccco1)N1CCOCC2(C1)CN(c1ccccc1)C(=O)CO2 (centres undefined) | -5.76%
Cn1cc(CN2CCCn3cnc(CN4CCCC4=O)c3C2)cn1 | -17.3%
CCC1=N[C@@]2(CC[C@@H]3CN(C(=O)NCC(C)C)C[C@@H]32)C(=O)N1CC(C)C | -9.11%
Cn1cnc2c1C(COCc1cccnc1)N(Cc1ccccn1)CC2 (centres undefined) | -3.62%

SMILES | cytotoxicity at 70.5 h
CN1CCCC1(CCCc1cccnc1)C(=O)NCc1nccn1C (centres undefined) | -1.26%
O=C(C1CCOCC1)N1CCCC1c1cncc(CN2CCCC2)n1 (centres undefined) | -0.0308%
COCC(=O)N1CCN(C)CC(Cc2cc(N(C)C)ncn2)C1 (centres undefined) | -3.09%
Cc1c[nH]c(C2CN(Cc3ccccc3C(=O)O)CCO2)n1 (centres undefined) | -1.83%
CC(C)=CCCC1(C)C=Cc2c(cc(C)n(CC(=O)O)c2=O)O1 (centres undefined) | -3.4%
Cc1ccc(CC2COCCN(S(=O)(=O)c3ccccc3)C2)nc1 (centres undefined) | -0.967%
CCN(CC)S(=O)(=O)N1CCC(c2c(C(N)=O)sc3ccccc23)C1 (centres undefined) | -3.04%
Cc1nn(C)cc1-c1cncn1CCN(C)C1CCCC1 | -5%
CN(Cc1ccco1)Cc1cncc2c1CCN(c1ncccn1)C2 | 7.69%
CC(C)CN1C(=O)C2(CCN(Cc3nccs3)C2)c2ccccc21 (centres undefined) | -1.93%
COCCNC(=O)[C@H]1C[C@@H]2CCN(c3nncs3)C[C@H]2O1 | -4.17%
CCCS(=O)(=O)N1CCO[C@H]2[C@H](OCc3ccccn3)CC[C@@H]21 | -1.48%
c1cnc(NC[C@@H]2CCC[C@@H]3CN(Cc4cccnc4)C[C@@H]32)nc1 | -2.09%
CN(C)C(=O)[C@@H]1CCO[C@@H]2CCN(CCc3ccccc3)C[C@@H]21 | 1.43%
Cc1ccc(N2CC[C@H]3OCC[C@@]3(C(=O)NC(C)C)C2)nn1 | 1.98%
COCC1Cn2nnc(-c3cnn(C)c3)c2CN1Cc1ccc(C)s1 (centres undefined) | 4.51%
CCN1CCn2c(C)cnc2C12CCN(C(=O)c1ccc(Cl)cc1)CC2 | -11.3%
O=C(c1ccc(F)cc1)N1C[C@@H]2OCCN(c3ncccn3)[C@@H]2C1 | 4.02%
CNC(=O)[C@@H]1C[C@H]2CN(C(=O)c3ccco3)C[C@H]2N1C | 2.59%
CC(C)CCN1CCC2(CC1)CN(C(=O)c1cnccn1)CCO2 | 1.9%
O=S(=O)(C1CC1)N1CCO[C@H]2[C@H](OCCN3CCCC3)CC[C@@H]21 | 23.9%
Cc1nc(CN2C(=O)CCC23CCN(c2ncccn2)CC3)cs1 | -8.07%
CCS(=O)(=O)N1CCO[C@H]2[C@H](OCCCn3cccn3)CC[C@@H]21 | -9.45%
CN(C)CCO[C@@H]1CC[C@H]2[C@H]1OCCN2C(=O)CCc1ccccc1 | -12.8%
O=C(NCc1ccco1)[C@H]1C[C@H]2OCC[C@H]2N(C(=O)c2ccncc2)C1 | -12.4%

SMILES | cytotoxicity at 70.5 h
CCOCC1CN(C(=O)CS(C)(=O)=O)Cc2cnn(C)c21 (centres undefined) | -14.4%
Fc1cnc(N2CCO[C@H]3CN(CC4CCCC4)C[C@H]32)nc1 | -13%
O=S(=O)(c1cccs1)N1CCCn2cnc(CN3CCCC3)c2C1 | 23.3%
O=C(NC1CC1)[C@H]1C[C@H]2OCC[C@H]2N(CC2CCOCC2)C1 | 22.7%
CC(=O)N1CC(=O)N(c2cnn(C)c2)CC12CCN(Cc1ccsc1)C2 (centres undefined) | 21.7%
COCCn1cc2c(n1)C(CNCc1ccco1)OCC2 (centres undefined) | 22.8%
CC(C)N(C)Cc1cnc2n1CCN(CCc1ccccc1)C2 | 4.09%
COCCn1cc2c(n1)C(CNCc1ccc(F)cc1)OCC2 (centres undefined) | 0.574%
Cn1cc(CN2CCC(F)(F)C3(CCN(c4cnccn4)C3)C2)cn1 (centres undefined) | -0.766%
Cc1ccc(CN2CCC(F)(F)C3(CCN(c4cnccn4)C3)C2)o1 (centres undefined) | -1.47%
CN1CC(=O)N(c2cccnc2)CC12CCN(C(=O)C1CCCCC1)C2 (centres undefined) | 36.1%
Cc1nc(CN2CCC3(CCCN(Cc4cnn(C)c4)C3)C2=O)cs1 (centres undefined) | 0.731%
COCC1c2c(cnn2CC2CC2)CCN1Cc1nccs1 (centres undefined) | -4.64%
O=C(NC1CCC1)[C@@H]1C[C@@H]2CCN(Cc3ccncc3)C[C@H]2O1 | -4.89%
O=C(NCC1CCOCC1)[C@H]1C[C@@H]2CCN(Cc3ccncc3)C[C@@H]2O1 | -1.08%
Cc1ccc(CN2CCc3ncnc(-c4cccnc4)c3CC2)o1 | -5.88%
Fc1cnc(N2CCn3cc(CNc4ccccn4)nc3C2)nc1 | -17.4%
COCC(=O)N1CCC2(CC1)COCCN2CCN(C)C | -19.5%
CN(Cc1cncnc1)Cc1cn2c(n1)CN(C1CCOC1)CC2 (centres undefined) | -13.2%
CC(=O)N1CCC2(CC1)COCCN2CCN(C)C | -10.7%
c1ccc(OC[C@]23COC[C@H]2CN(Cc2ccoc2)C3)nc1 | -12.9%
c1ccc(Cn2cc3c(n2)C(CNCc2ccco2)OCC3)nc1 (centres undefined) | -0.917%
COCc1cncc2c1CCN(Cc1ccccn1)C2 | -0.455%
c1ccc(CN2CCO[C@H]3[C@H](OCCN4CCCC4)CC[C@@H]32)nc1 | -7.8%

Source: ChEMBL document CHEMBL3507680, “University of Dundee, Gates Library screen for HepG2 cell viability”
